The source made the active and inactive calls. No cut-off for these calls is given here.
Assays:
Cnaphalocrocis medinalis [1] = test: Reduction of fecundity in third-instar of Cnaphalocrocis medinalis in IR20 rice plant leaf at 25 ppm relative to control; type: functional; parameters: scale not given: the % may be the effect or the level left
Cnaphalocrocis medinalis [2] = test: Reduction of fecundity in third-instar of Cnaphalocrocis medinalis in IR20 rice plant leaf at 6 ppm relative to control; type: functional; parameters: scale not given: the % may be the effect or the level left
Cnaphalocrocis medinalis [3] = test: Reduction of fecundity in third-instar of Cnaphalocrocis medinalis in IR20 rice plant leaf at 3 ppm relative to control; type: functional; parameters: scale not given: the % may be the effect or the level left
Cnaphalocrocis medinalis [4] = test: Reduction of larval normal weight gain time in third-instar of Cnaphalocrocis medinalis in IR20 rice plant leaf at 12 ppm after 25 days (reference value: 23.5 +/- 0.56 days); type: functional
Cnaphalocrocis medinalis [5] = test: Reduction of larval normal weight gain time in third-instar of Cnaphalocrocis medinalis in IR20 rice plant leaf at 6 ppm after 25 days (reference value: 23.5 +/- 0.56 days); type: functional
Cnaphalocrocis medinalis [6] = test: Reduction of larval normal weight gain time in third-instar of Cnaphalocrocis medinalis in IR20 rice plant leaf at 3 ppm after 25 days (reference value: 23.5 +/- 0.56 days); type: functional
Cnaphalocrocis medinalis [7] = test: Reduction of larval weight gain in third-instar of Cnaphalocrocis medinalis in IR20 rice plant leaf at 6 ppm after 25 days; type: functional
Cnaphalocrocis medinalis [8] = test: Reduction of larval weight gain in third-instar of Cnaphalocrocis medinalis in IR20 rice plant leaf at 6 ppm after 48 hr (reference value: 23.7 mg); type: functional
Cnaphalocrocis medinalis [9] = test: Reduction of larval weight gain in third-instar of Cnaphalocrocis medinalis in IR20 rice plant leaf at 12 ppm after 48 hr (reference value: 23.7 mg); type: functional
Cnaphalocrocis medinalis [10] = test: Reduction of larval weight gain in third-instar of Cnaphalocrocis medinalis in IR20 rice plant leaf at 3 ppm after 48 hr (reference value: 23.7 mg); type: functional
Cnaphalocrocis medinalis [11] = test: Antifeedant activity against fourth-instar of Cnaphalocrocis medinalis in IR20 rice plant leaf assessed as leaf scraped at 12 ppm after 48 hr; type: functional, organism-based
Cnaphalocrocis medinalis [12] = test: Antifeedant activity against fourt-instar of Cnaphalocrocis medinalis in IR20 rice plant leaf assessed as leaf scraped at 1.5 ppm after 24 hr; type: functional
Cnaphalocrocis medinalis [13] = test: Antifeedant activity against fourth-instar of Cnaphalocrocis medinalis in IR20 rice plant leaf assessed as leaf scraped at 12 ppm after 24 hr; type: functional
Cnaphalocrocis medinalis [14] = test: Antifeedant activity against fourth-instar of Cnaphalocrocis medinalis in IR20 rice plant leaf at 12 ppm after 4 days; type: functional, organism-based
Cnaphalocrocis medinalis [15] = test: Antifeedant activity against fourth-instar of Cnaphalocrocis medinalis in IR20 rice plant leaf at 1.5 to 3 ppm after 4 days; type: functional, organism-based
Cnaphalocrocis medinalis [16] = test: Antifeedant activity against fourth-instar of Cnaphalocrocis medinalis in IR20 rice plant leaf at 6 ppm after 4 days; type: functional
Cnaphalocrocis medinalis [17] = test: Reduction of egg fertility in third-instar of Cnaphalocrocis medinalis in IR20 rice plant leaf assessed as oviposition deterrence index at 6 to 12 ppm; type: functional, organism-based
Cnaphalocrocis medinalis [18] = test: Reduction of egg production in third-instar of Cnaphalocrocis medinalis in IR20 rice plant leaf assessed as oviposition deterrence index at 12 ppm relative to control; type: functional; parameters: scale not given: the % may be the effect or the level left
Cnaphalocrocis medinalis [19] = test: Reduction of egg production in third-instar of Cnaphalocrocis medinalis in IR20 rice plant leaf assessed as oviposition deterrence index at 6 ppm relative to control; type: functional; parameters: scale not given: the % may be the effect or the level left

**Q.** With `CC(C)=CC(=O)C[C@@H](C)[C@H]1CC[C@@]2(C)[C@@H]3CC[C@@H]4[C@@]5(CC(=O)OC[C@@]4(C)C(=O)O)C[C@@]35CC[C@]12C` [BEDDOMEILACTONE] as the molecule, how does the Activity (Cnaphalocrocis medinalis [1]) read?
**A.** 3%

**Q.** And the Activity (Cnaphalocrocis medinalis [2])?
**A.** 19%

**Q.** And the Activity (Cnaphalocrocis medinalis [3])?
**A.** 39%

**Q.** And the Time (Cnaphalocrocis medinalis [4])?
**A.** 48.3 days

**Q.** And the Time (Cnaphalocrocis medinalis [5])?
**A.** 39.2 days

**Q.** And the Time (Cnaphalocrocis medinalis [6])?
**A.** 37.2 days

**Q.** And the Activity (Cnaphalocrocis medinalis [7])?
**A.** 12.1 mg

**Q.** What about the Activity (Cnaphalocrocis medinalis [8]) of the same molecule?
**A.** 10.2 mg

**Q.** What about the Activity (Cnaphalocrocis medinalis [9]) of the same molecule?
**A.** 7.2 mg

**Q.** And the Activity (Cnaphalocrocis medinalis [10])?
**A.** 13.6 mg

**Q.** And the Activity (Cnaphalocrocis medinalis [11])?
**A.** Active

**Q.** And the Activity (Cnaphalocrocis medinalis [12])?
**A.** 8.97 cm2

**Q.** And the Activity (Cnaphalocrocis medinalis [13])?
**A.** 0.87 cm2

**Q.** What about the Activity (Cnaphalocrocis medinalis [14]) of the same molecule?
**A.** Active

**Q.** What about the Activity (Cnaphalocrocis medinalis [15]) of the same molecule?
**A.** Active

**Q.** What about the Activity (Cnaphalocrocis medinalis [16]) of the same molecule?
**A.** 80%

**Q.** And the Activity (Cnaphalocrocis medinalis [17])?
**A.** Active

**Q.** What about the Activity (Cnaphalocrocis medinalis [18]) of the same molecule?
**A.** 83%

**Q.** And the Activity (Cnaphalocrocis medinalis [19])?
**A.** 60%

Source: ChEMBL document CHEMBL3046417 (2009)
